# Results taken from ChEMBL document CHEMBL1128969, “Design, synthesis and in vitro activities of a series of benzimidazole/benzoxazole glycoprotein IIb/IIIa inhibitors” (Bioorg Med Chem Lett, 1996).
# Species: Homo sapiens
# Assay: In vitro inhibition of platelet aggregation using Human platelet-Rich Plasma
# Assay type: functional
SMILES,IC50 [µM],Inhibition [%]
NCc1ccc(-c2nc3cc(C(=O)NCCC(=O)O)ccc3[nH]2)cc1,100,
NCc1ccc(Cn2cnc3cc(C(=O)NCCC(=O)O)ccc32)cc1,83,
N=C(N)c1ccc(Cn2cnc3cc(C(=O)NCCC(=O)O)ccc32)cc1,6.8,
Cc1nc2cc(C(=O)NCCC(=O)O)ccc2n1Cc1ccc(C(=N)N)cc1,11,
NCc1ccc(-c2nc3cc(C(=O)N[C@@H](CC(=O)O)C(=O)NCCc4ccccc4)ccc3[nH]2)cc1,,16
CCCCOC(=O)N[C@@H](CNC(=O)c1ccc2[nH]c(-c3ccc(C(=N)N)cc3)nc2c1)C(=O)O,0.05,
O=C(O)CCNC(=O)c1ccc2c(c1)ncn2CCCC1CCNCC1,16,
NCc1ccc(-c2nc3cc(C(=O)N[C@@H](CC(=O)O)C(=O)NCCc4c[nH]c5ccccc45)ccc3[nH]2)cc1,61,

# Second part, led by results:
IC50 [µM],SMILES,Inhibition [%]
0.02,CCCCOC(=O)N[C@@H](CNC(=O)c1ccc2nc(-c3ccc(C(=N)N)cc3)oc2c1)C(=O)O,
0.01,Cc1ccc(S(=O)(=O)N[C@@H](CNC(=O)c2ccc3nc(-c4ccc(C(=N)N)cc4)oc3c2)C(=O)O)cc1,
0.01,Cc1ccc(S(=O)(=O)N[C@@H](CNC(=O)c2ccc3oc(-c4ccc(C(=N)N)cc4)nc3c2)C(=O)O)cc1,
0.02,CCCCOC(=O)N[C@@H](CNC(=O)c1ccc2oc(-c3ccc(C(=N)N)cc3)nc2c1)C(=O)O,
